The record followed here is patent US20230339882A1, “SHP2 INHIBITOR AND COMPOSITION AND APPLICATION THEREOF” (Betta Pharmaceuticals Co., Ltd., priority 2020, published 2023).

The target of one test is SHP2 (Homo sapiens (Human), UniProt Q06124). Put plainly: SHP2 allosteric inhibitory enzyme activity assay (DiFMUP fluorescence). It counts as biochemical. The following applies: read-out: SHP2 enzymatic activity IC50. From the text: Example A: SHP2 Allosteric Inhibitory Enzyme Activity Assay
SHP2 is allosterically activated by binding of a bis-tyrosyl-phosphorylated peptide to its Src homology 2 (SH2) domain. This later activation step results in the release of the autoinhibitory interface of SHP2, which in turn activates the SHP2 protein tyrosine phosphatase (PTP) and is available for substrate recognition and reaction catalysis. The catalytic activity of SHP2 was monitored using the surrogate DiFMUP in a rapid fluorescence assay format.
experiment procedure: • (1) Compound preparation: • The compounds of the present invention (10 mM stock solution) were diluted to appropriate times with 100% DMSO, and the final test concentrations of the compounds of the present invention were 10 µM, 3.3333 µM, 1.1111 µM, 0.3704 µM, 0.1235 µM, 0.0412 µM, 0.0137 µM, 0.0046 µM, 0.0015 µM, 0.00 µM; • (2) Prepare the enzyme reaction working solution: • Perform SHP2 enzymatic assays in 96-well black polystyrene plates (flat bottom, low flange, non-binding surface) (Perki Elmer, Cat#6005270) at room temperature using a final reaction volume of 50 µL and the following assay buffer conditions: 60 mM HEPES, 75 mM NaCl, 75 mM KCl, 0.05% BRIJ-35, 1 mM EDTA, 5 mM DTT. • (3) Enzyme-catalyzed reaction and data monitoring: • Add the compound of the present invention to the corresponding 96-well plate, and set the blank test well without compound and enzyme only with buffer. Thaw SHP2 Activating Peptide (IRS1_pY1172(dPEG8)pY1222) on ice, add 25 µM to each well, then add 0.2 ng of SHP2 protein sample to the corresponding well plate and incubate at room temperature for 1 hour. The surrogate substrate DiFMUP (Invitrogen, Cat #D6567) was added to the reaction and allowed to react for 1 hour at room temperature. Fluorescence signals were monitored using a microplate reader (Envision, Perki Elmer) using excitation and emission wavelengths of 340 nm and […], respectively. • (4) Data analysis: • Calculation Formula: • [formula]
Among them: Conversion_sample is the conversion rate reading of the sample; Conversion_min is the average value of blank control wells, representing the conversion rate readings of wells without enzymatic activity; Conversion_max is the mean ratio of positive control wells, representing the conversion rate readings of wells without compound inhibition. The log(inhibitor) vs. response-Variable slope of the analysis software GraphPad Prism was used to fit the dose-response curve, and the IC50 value of the compound for the enzymatic activity was calculated.

For the next test, the system named is leukemia cells MV-4-11. In words: Cell proliferation assay, CELL TITER-GLO (CTG) luminescence, MV-4-11. Format: cell-based. The following applies: Homo sapiens, MV4-11, cultured for 120 hrs. Here is the method: (§1) Example B: Cell Proliferation Assay
(§2) The effects of the compounds of the invention on the proliferation of leukemia cells MV-4-11 and lung cancer cells NCI-H358 were evaluated using in vitro cell assays. The detection method used in the experiment is the CELL TITER-GLO (CTG) luminescence method, which can detect the number of viable cells by quantifying ATP. Because ATP participates in a variety of enzymatic reactions in vivo, it is an indicator of the metabolism of living cells, and its content directly reflects the number and state of cells. During the experiment, CellTiter-Glo™ reagent was added to the cell culture medium to measure the luminescence value. The value is proportional to the amount of ATP, and ATP is positively related to the number of living cells, so the cell viability can be examined by detecting the ATP content.
(§3) experiment procedure: • (1) Cell plating: • Take a bottle of MV-4-11 cells in logarithmic growth phase, resuspend the cells by centrifugation and count them. After adjusting the cell density, they were seeded into a 96-well plate (Corning #3917). After culturing in a 5% CO2 incubator for 24 hrs, the compound of the present invention was added for treatment; • Take a bottle of NCI-H358 cells in logarithmic growth phase, digest and resuspend the cells, count them, adjust the cell density, and inoculate them into a 96-well transparent ultra-low adsorption cell culture plate (Corning #3474), inoculate 2000 cells per well. The plate was placed in an incubator at 37° C. and 5% CO2 for 24 hrs, and then the compound of the present invention was added for treatment; • (2) Cell compound treatment: • An appropriate amount of the compound of the present invention was prepared for cell treatment. The final concentration of the compound from high to low was 1000 nM, 333.3 nM, 111.1 nM, 37.04 nM, 12.35 nM, 4.115 nM, 1.372 nM, 0.4572 nM, 0.1524 nM, and 0 nM. The plate was placed in a 37° C., 5% CO2 incubator for 120 hrs. Only adding medium without cell wells was set as the blank group; the group with compound concentration of 0 nM was the zero-adjusting group. • (3) CTG detection: • After NCI-H358 cells were cultured for 96 hrs, 50 µL of CellTiter-Glo® Luminescent Cell Viability Assay solution was added to each well, shaken gently for 2 mins, and incubated at room temperature for 10 mins. The cell reaction system was transferred to a white-bottomed 96-well plate. Read the detection value of each well on a multi-function microplate reader. • After MV-4-11 cells were cultured for 120 hrs, 50 µL of CellTiter-Glo® Luminescent Cell Viability Assay solution was added to each well, gently shaken for 2 mins, and incubated at room temperature for 10 mins. Check the value. • (4) Data analysis: • Calculate the inhibition rate from the luminescence value readings, • [formula]
(§4) The log(inhibitor) vs. response-Variable slope of GraphPad Prism was fitted to dose-response curves and IC50s of compounds that inhibited cell proliferation were calculated.
On the technique in general: Cellular ATP, detected with luciferase, serves as a proxy for viable cell number.

Test [1] relates to lung cancer cells NCI-H358. Put plainly: Cell proliferation assay, CELL TITER-GLO (CTG) luminescence, NCI-H358. Format: cell-based. The following applies: Homo sapiens, NCI-H358, ultra-low adsorption plate, cultured for 96 hrs. Here is the method:
as §1, §2, §3, §4

Molecules are shown by their SMILES.

Chain of SHP2 (Q06124 whole entry): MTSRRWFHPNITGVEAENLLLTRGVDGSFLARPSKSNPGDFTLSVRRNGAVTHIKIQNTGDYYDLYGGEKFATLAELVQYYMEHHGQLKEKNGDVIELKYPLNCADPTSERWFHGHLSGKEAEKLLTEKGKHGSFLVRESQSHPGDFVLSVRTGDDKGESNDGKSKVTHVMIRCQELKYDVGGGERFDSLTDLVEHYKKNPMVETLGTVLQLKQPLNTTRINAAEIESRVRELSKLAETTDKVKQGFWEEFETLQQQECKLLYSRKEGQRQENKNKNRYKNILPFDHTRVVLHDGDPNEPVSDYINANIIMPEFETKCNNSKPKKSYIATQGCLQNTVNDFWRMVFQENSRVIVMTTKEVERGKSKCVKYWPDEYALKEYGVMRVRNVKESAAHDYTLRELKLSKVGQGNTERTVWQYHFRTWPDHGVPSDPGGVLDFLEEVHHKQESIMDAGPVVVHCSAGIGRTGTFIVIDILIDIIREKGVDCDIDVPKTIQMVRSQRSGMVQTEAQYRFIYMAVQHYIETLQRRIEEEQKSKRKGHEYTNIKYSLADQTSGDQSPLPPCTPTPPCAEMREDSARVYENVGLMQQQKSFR

With `COc1cccc(OCC#Cc2cnc(N3CCC4(CC3)Cc3ccccc3[C@H]4N)c(CO)n2)c1` [Compound A02, (S)-(3-(1-amino-1,3-dihydrospiro [indene-2,4′-piperidine]-1′-yl)-6-(3-(3-methoxyphenoxy)prop-1-yn-1-yl)pyrazin-2-yl) methanol], the IC50 (commonly the concentration needed to halve the response being measured) came out at 0.7 nM on SHP2, 5 nM with leukemia cells MV-4-11 and 7.8 nM in test [1].
As to `CC(=O)Nc1cccc(OCC#Cc2cnc(N3CCC4(CC3)Cc3ccccc3[C@H]4N)n(C)c2=O)c1` [Compound A34, (S)-N-(3-((3-(2-(1-amino-1,3-dihydrospiro[indene-2,4′-piperidin]-1′-yl)-1-methyl-6-oxo-1,6-dihydropyrimidin-5-yl)prop-2-yn-1-yl)oxy)phenyl)acetamide], the values for the IC50 (with leukemia cells MV-4-11; in test [1]) were 25 nM and 51 nM, respectively.
With `N[C@@H]1c2ccccc2CC12CCN(c1ncc(C#CCNc3ccccc3)nc1CO)CC2` [Compound A07, (S)-(3-(1-amino-1,3-dihydrospiro [indene-2,4′-piperidine]-1′-yl)-6-(3-(phenylamino)prop-1-yn-1-yl)pyrazin-2-yl) methanol], the IC50 on SHP2 amounted to 2.5 nM; in the test with leukemia cells MV-4-11 it was 5.5 nM; in test [1], 12 nM.
The matching figures for `Cc1cc(OCC#Cc2cnc(N3CCC4(CC3)Cc3ccccc3[C@H]4N)c(CO)n2)ccc1C(N)=O` [Compound A74, (S)-4-((3-(5-(1-amino-1,3-dihydrospiro[indene-2,4′-piperidin]-1′-yl)-6-(hydroxymethyl)pyrazin-2-yl)prop-2-yn-1-yl)oxy)-2-methylbenzamide]: 1.1 nM, 1.7 nM and 6.4 nM.
With `CC(=O)c1cccc(OCC#Cc2cnc(N3CCC4(CC3)Cc3ccccc3[C@H]4N)c(CO)n2)c1` [Compound A16, (S)-1-(3-((3-(5-(1-amino-1,3-dihydrospiro[indene-2,4′-piperidin]-1′-yl)-6-(hydroxymethyl)pyrazin-2-yl)prop-2-yn-1-yl)oxy)phenyl)etha n-1-one], the concentration for half-maximal inhibition (IC50) stood at 6.9 nM in the test on leukemia cells MV-4-11 and 11 nM in test [1].
Take `CC(=O)Nc1cccc(OCC#Cc2cnc(N3CCC4(CC3)Cc3ccccc3[C@H]4N)c(CO)n2)c1` [Compound A04, (S)-N-(3-((3-(5-(1-amino-1,3-dihydrospiro[indene-2,4′-piperidin]-1′-yl)-6-(hydroxymethyl)pyrazin-2-yl)prop-2-yn-1-yl)oxy)phenyl)acetamide]: the IC50 on SHP2 worked out at 2.9 nM; in the test with leukemia cells MV-4-11, 3.6 nM; in test [1], 4 nM.
On to `CN(C)C(=O)c1cccc(OCC#Cc2cnc(N3CCC4(CC3)Cc3ccccc3[C@H]4N)c(CO)n2)c1` [Compound A36, (S)-3-((3-(5-(1-amino-1,3-dihydrospiro[indene-2,4′-piperidin]-1′-yl)-6-(hydroxymethyl)pyrazin-2-yl)prop-2-yn-1-yl)oxy)-N,N-dimethylb enzamide], for which the IC50 with leukemia cells MV-4-11 came out at 14 nM; in test [1], 48 nM.
With `Nc1nc2cc(OCC#Cc3cnc(N4CCC5(CC4)Cc4ccccc4[C@H]5N)c(CO)n3)ccc2o1` [Compound A69, (S)-(3-(1-amino-1,3-dihydrospiro[inden-2,4′-piperidin]-1′-yl)-6-(3-((2-Aminobenzo[d]oxazol-5-yl)oxy)prop-1-yn-1-yl)pyrazin-2-yl)met hanol], the 50% inhibitory concentration (IC50) in the test on leukemia cells MV-4-11 was 0.7 nM; in test [1], 2.1 nM.
The matching figures for `CNC(=O)c1ccc(OCC#Cc2cnc(N3CCC4(CC3)Cc3ccccc3[C@H]4N)c(CO)n2)cc1` [Compound A72, (S)-4-((3-(5-(1-amino-1,3-dihydrospiro[indene-2,4′-piperidin]-1′-yl)-6-(hydroxymethyl)pyrazin-2-yl)prop-2-yn-1-yl)oxy)-N-methylbenzamide]: 1.8 nM and 3.5 nM.
In the same order, the values of `COc1ccccc1OCC#Cc1cnc(N2CCC3(CC2)Cc2ccccc2[C@H]3N)c(CO)n1` [Compound A10, (S)-(3-(1-amino-1,3-dihydrospiro[indene-2,4′-piperidin]-1′-yl)-6-(3-(2-methoxyphenoxy)prop-1-yn-1-yl)pyrazin-2-yl)methanol] are 4.4 nM and 4.3 nM.
The matching figures for `N[C@@H]1c2ccccc2CC12CCN(c1ncc(C#CCOc3ccc(C(F)(F)F)nc3)nc1CO)CC2` [Compound A70, (S)-(3-(1-amino-1,3-dihydrospiro[indene-2,4′-piperidin]-1′-yl)-6-(3-( (6-(trifluoromethyl)pyridin-3-yl)oxy)prop-1-yn-1-yl)pyrazin-2-yl)m ethanol]: 6.2 nM and 17 nM.
Regarding `CNC(=O)c1cccc(OCC#Cc2cnc(N3CCC4(CC3)Cc3ccccc3[C@H]4N)c(CO)n2)c1` [Compound A35, (S)-3-((3-(5-(1-amino-1,3-dihydrospiro[indene-2,4′-piperidine]-1′-yl)-6-(hydroxymethyl)pyrazin-2-yl)prop-2-yn-1-yl)oxy)-N-methylben zamide], the results for the IC50 (in the test on leukemia cells MV-4-11; in test [1]) were 3 nM and 3.6 nM, respectively.
In the same order, the values of `N[C@@H]1c2ccccc2CC12CCN(c1ncc(C#CCOc3ccc4[nH]ncc4c3)nc1CO)CC2` [Compound A67, (S)-(6-(3-((1H-Indazol-5-yl)oxy)prop-1-yn-1-yl)-3-(1-amino-1,3-dihydrospiro[Indene-2,4′-piperidin]-1 ‘-yl)pyrazin-2-yl)methanol] are 1 nM and 0.9 nM.
In the same order, the values of `N[C@@H]1c2ccccc2CC12CCN(c1ncc(C#CCOc3cccc(Cl)c3F)nc1CO)CC2` [Compound A05, (S)-(3-(1-amino-1,3-dihydrospiro[indene-2,4′-piperidin]-1′-yl)-6-(3-(3-chloro-2-fluorophenoxy)prop-1-yn-1-yl)pyrazin-2-yl)methanol] are 14 nM and 15 nM.
Turning to `NC(=O)c1nc(C#CCOc2ccc3c(c2)C(=O)NC3)cnc1N1CCC2(CC1)Cc1ccccc1[C@H]2N` [Compound A42], at SHP2, the IC50 worked out at 15 nM.
Take `N[C@@H]1c2ccccc2CC12CCN(c1ncc(C#CCNc3ccc4c(c3)NC(=O)CC4)nc1CO)CC2` [Compound A64, (S)-7-((3-(5-(1-amino-1,3-dihydrospiro[indene-2,4′-piperidin]-1′-yl)-6-(hydroxymethyl)pyrazin-2-yl)prop-2-yn-1-yl)amino)-3,4-dihydroq uinolin-2(1H)-one]: the figures for the half-maximal inhibitory concentration (IC50) (in the test with leukemia cells MV-4-11; in test [1]) were 0.9 nM and 2.1 nM, respectively.
